Reference: patent US20260014085A1, “MILK DERIVED EXOSOMES AND USES THEREOF” (VIRGINIA TECH INTELLECTUAL PROPERTIES, INC., priority 2022, published 2026)

Experiments:
[1] = test system: B5 Clone (High Cx43) MDCK cells; test: mEV uptake in scratch wound model, B5 Clone (High Cx43) MDCK; assay type: cell-based, canine
Method: Cells are cultured to confluency, then scratched in low serum conditions (1% NCS), rinsed, and supplied fresh medium with 20 μg/mL CTDR-Tagged mEV's. […] (FIG. 4B) Unwounded Parent (Low Cx43) MDCKs; (FIG. 4C) Wounded Parent (Low Cx43) MDCKs; (FIG. 4D) Unwounded B5 Clone (High Cx43) MDCKs; (FIG. 4E) Wounded B5 Clone (High Cx43) MDCKs. […] (FIG. 4G) Wounded B5 Clone (High Cx43) MDCKs provided mEV's; (FIG. 4H) Wounded B5 Clone (High Cx43) MDCKs provided mEV's and Gap27, a Connexin inhibitor.
FIG. 5A-5C—Milk-Derived Extracellular Vesicle targeting capabilities to high Cx43 expressing B5 Clone MDCKS are completely eliminated via use of exogenous Apyrase. Cells are cultured to confluency, then scratched in low serum conditions (1% NCS), rinsed, and supplied fresh medium with 20 μg/mL CTDR-Tagged mEV's with or without 100 uM Apyrase. (FIG. 5A) Wounded B5 Clone (High Cx43) given CTDR-Tagged mEV's; (FIG. 5B) Wounded B5 Clone (High Cx43) given CTDR tagged mEV's with 100 µM Apyrase.
The associated bar graph for particle count analysis is shown above in FIG. 4A. […] This insinuates that mEV uptake by cells is mediated by Cx43 in both unwounded and wounded situations, with unwounded B5 clone cells experiencing similar uptake levels to that of wounded Parent Lampe cells (FIG. 4A). Applicant then tested for the mechanism of uptake in these cells—B5 clone cells were scratch wounded and given fluorescently tagged mEV's, then some were also provided with Gap27 (FIG. 4F), a known Connexin channel blocker. When co-incubated with Gap27 (D2), mEV uptake was blocked by over 25% (FIG. 4F) when compared to those untreated. […] Another mechanism of uptake of mEV's in a wounded environment that Applicant has discovered is ATP (FIG. 5A-5C).
Small extracellular vesicles known as exosomes (nanovesicles of less than or equal to 150 nm diameter) are secreted by nearly all cell types and are thought to have key assignments in intercellular signaling. Reports that exosomes evade immune detection, show propensity to cross tissue boundaries (e.g., the blood-brain barrier) and can be orally administered has also attracted increasing interest in therapeutic applications, including as drug delivery devices. Applicant recently developed a method for large-scale purification of bovine milk-derived extracellular vesicles (Marsh et al., Nanotheranostics. 2021 Jul. 5; 5(4):488-498. doi: 10.7150/ntno.62213. eCollection 2021). […] Girao and co-workers determined that Connexin 43 (Cx43) is present in exosomes derived from cultured cells expressing Cx43, where this gap junction protein has assignments in cellular uptake of exosomal cargo (Soares et al., Sci Rep. 2015 Aug. 19; 5:13243. doi: 10.1038/srep13243). […]

[2] = test system: B5 Clone (High Cx43) MDCK cells; test: Scratch wound closure (migration index), B5 Clone (High Cx43) MDCK; assay type: cell-based, canine; conditions: B5 Clone MDCKs, 100 uM Apyrase
Method: FIG. 7A-7L—Milk-Derived Extracellular Vesicles contain endogenous bioactive capabilities in a Scratch-Wounded model of wound healing in Cx43-variable MDCK cells. Cells are cultured to confluency, then scratched in low serum conditions (1% NCS), rinsed, and supplied fresh medium with 20 μg/mL mEV's or 20 uL Vehicle (HEPES buffer). (FIG. 7A) Quantification of wound closure using ImageJ border zone analysis plugin software. Scratches are scanned and imaged at t=0 and scratch size is quantified, then after 8 hours, cells are stopped, fixed and imaged again, then final scratch size is quantified. Migration index is calculated by subtracting the final area from the starting and dividing by the average of vehicle control samples, giving a value of 1.0 for vehicle control. mEV's contain endogenous bioactivity that is Cx43 Dependent, with over 8× healing potential when cells contain enhanced Cx43 levels. […] (FIG. 7G) Quantification of wound closure using ImageJ border zone analysis plugin software. Scratches are scanned and imaged at t=0 and scratch size is quantified, then after 8 hours, cells are stopped, fixed and imaged again, then final scratch size is quantified. […]

Substance | mEV uptake blocked when co-incubated with Gap27 ([1]; scratch wounded B5 clone cells, compared to untreated) | mEV expression with added Gap27 ([1]; wounded B5 Clone (High Cx43) MDCKs) | mEV expression with added apyrase ([1]; wounded B5 Clone (High Cx43) MDCKs, 100 uM Apyrase) | reduction in mEV uptake with apyrase ([1]; wounded B5 Clone cells, co-incubated with 100 uM apyrase) | mEV wound healing capabilities with exogenous Apyrase [2]
Gap27: a known Connexin channel blocker (TEKTIFIIFML; UniProt P17302 204-214, looked up, fragment) | over 25% | statistical drop | – | – | –
Apyrase | – | – | significant and complete elimination | > 95% | heavily reduced
